Test results from publication PMC9599461, “Stereoselectivity in the Membrane Transport of Phenylethylamine Derivatives by Human Monoamine Transporters and Organic Cation Transporters 1, 2, and 3” (Biomolecules, 2022).
Where “and” joins values, the source holds several entries; their conditions need not be identical. Equal entries are not always repeated.

Experiments:
NET = NET (Homo sapiens, UniProt P23975); assay: Stereoselective uptake into NET-overexpressing HEK293 cells;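 also: intracellular enantiomers quantified in cell lysates by chiral HPLC-MS/MS after a 2 min substrate incubation, with uptake normalized to total cellular protein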
Sequence of NET (P23975 whole entry): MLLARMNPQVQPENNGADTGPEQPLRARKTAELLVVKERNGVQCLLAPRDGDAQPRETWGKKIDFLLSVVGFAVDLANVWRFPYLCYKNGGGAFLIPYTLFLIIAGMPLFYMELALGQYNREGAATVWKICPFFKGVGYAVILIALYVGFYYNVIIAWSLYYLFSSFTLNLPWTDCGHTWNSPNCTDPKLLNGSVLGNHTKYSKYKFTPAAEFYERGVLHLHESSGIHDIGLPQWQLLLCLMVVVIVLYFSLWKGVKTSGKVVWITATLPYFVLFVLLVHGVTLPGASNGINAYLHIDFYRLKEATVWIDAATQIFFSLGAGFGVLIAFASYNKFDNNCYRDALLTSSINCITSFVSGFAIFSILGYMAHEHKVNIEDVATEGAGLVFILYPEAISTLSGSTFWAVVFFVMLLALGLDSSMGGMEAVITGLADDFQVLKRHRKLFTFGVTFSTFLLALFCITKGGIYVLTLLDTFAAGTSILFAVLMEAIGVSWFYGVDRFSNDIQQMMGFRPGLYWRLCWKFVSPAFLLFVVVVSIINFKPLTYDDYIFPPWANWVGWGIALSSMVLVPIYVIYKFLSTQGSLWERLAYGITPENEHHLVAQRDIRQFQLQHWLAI

DAT = DAT (Homo sapiens, UniProt Q01959); assay: Stereoselective uptake into DAT-overexpressing HEK293 cells;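 also: intracellular accumulation measured by chiral HPLC-MS/MS in stably transfected HEK293 cells, normalized to total protein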
Sequence of DAT (Q01959 whole entry): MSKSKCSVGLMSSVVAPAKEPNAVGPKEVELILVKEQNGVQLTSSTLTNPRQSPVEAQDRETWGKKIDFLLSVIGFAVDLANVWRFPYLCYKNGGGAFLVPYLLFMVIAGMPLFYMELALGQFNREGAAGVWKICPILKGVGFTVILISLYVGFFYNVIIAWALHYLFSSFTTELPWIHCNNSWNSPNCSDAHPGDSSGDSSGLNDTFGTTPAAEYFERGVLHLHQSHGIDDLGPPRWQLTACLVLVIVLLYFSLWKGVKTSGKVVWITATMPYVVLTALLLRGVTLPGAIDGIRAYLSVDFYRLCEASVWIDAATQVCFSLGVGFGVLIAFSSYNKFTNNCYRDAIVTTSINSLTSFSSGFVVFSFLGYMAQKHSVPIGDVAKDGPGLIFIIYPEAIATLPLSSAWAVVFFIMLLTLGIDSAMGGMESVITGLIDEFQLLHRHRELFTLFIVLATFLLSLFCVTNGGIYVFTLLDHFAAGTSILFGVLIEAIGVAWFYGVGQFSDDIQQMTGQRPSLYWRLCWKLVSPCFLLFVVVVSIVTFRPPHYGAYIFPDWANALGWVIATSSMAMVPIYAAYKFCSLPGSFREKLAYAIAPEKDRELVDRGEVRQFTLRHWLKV

SERT = SERT (Homo sapiens, UniProt P31645); assay: Stereoselective uptake into SERT-overexpressing HEK293 cells;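 also: uptake into HEK293 cells stably expressing human SERT over 2 min, enantiomers measured in cell lysate by chiral HPLC-MS/MS, normalized to total protein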
Sequence of SERT (P31645 whole entry): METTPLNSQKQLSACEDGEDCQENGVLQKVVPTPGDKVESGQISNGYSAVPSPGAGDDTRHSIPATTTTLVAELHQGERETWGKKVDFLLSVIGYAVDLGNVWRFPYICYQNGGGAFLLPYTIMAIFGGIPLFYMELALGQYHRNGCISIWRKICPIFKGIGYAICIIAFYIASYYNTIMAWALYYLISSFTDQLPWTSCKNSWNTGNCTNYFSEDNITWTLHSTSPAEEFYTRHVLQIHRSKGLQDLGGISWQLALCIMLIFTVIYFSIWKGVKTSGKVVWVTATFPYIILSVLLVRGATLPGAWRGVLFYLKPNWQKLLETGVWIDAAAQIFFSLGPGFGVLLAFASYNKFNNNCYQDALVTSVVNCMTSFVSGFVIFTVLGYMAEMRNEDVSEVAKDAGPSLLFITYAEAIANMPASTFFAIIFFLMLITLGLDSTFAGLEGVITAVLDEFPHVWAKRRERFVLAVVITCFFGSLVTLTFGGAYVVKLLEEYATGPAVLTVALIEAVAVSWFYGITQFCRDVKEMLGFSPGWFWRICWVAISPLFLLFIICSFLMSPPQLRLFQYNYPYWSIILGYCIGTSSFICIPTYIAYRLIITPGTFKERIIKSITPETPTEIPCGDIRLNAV

OCT1 = target: T1, OCT1 (Homo sapiens, UniProt O15245); assay: Stereoselective uptake into OCT1-overexpressing HEK293 cells; conditions: OCT1; for selectivity ratio at 2 min: human, ratio between enantiomers;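 as to all read-outs here: enantiomers quantified inside cells by chiral HPLC-MS/MS, uptake normalized to total protein from bicinchoninic acid assay, substrates applied in HBSS+ buffer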
T1 sequence (O15245 1-554): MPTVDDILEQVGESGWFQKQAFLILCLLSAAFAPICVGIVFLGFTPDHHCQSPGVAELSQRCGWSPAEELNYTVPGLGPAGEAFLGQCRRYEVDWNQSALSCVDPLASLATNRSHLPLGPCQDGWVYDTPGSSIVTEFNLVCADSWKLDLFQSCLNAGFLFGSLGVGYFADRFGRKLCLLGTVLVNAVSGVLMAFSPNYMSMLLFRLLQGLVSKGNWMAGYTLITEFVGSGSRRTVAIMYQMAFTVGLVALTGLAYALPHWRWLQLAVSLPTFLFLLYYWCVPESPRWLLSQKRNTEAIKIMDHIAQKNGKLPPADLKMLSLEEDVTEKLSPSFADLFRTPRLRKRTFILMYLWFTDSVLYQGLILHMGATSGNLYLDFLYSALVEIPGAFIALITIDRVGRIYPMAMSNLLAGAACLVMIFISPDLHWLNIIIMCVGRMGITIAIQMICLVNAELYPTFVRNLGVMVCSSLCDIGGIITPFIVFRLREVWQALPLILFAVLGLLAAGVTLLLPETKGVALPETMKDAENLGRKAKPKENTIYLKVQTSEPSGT
Experimental: All transport experiments were carried out in HEK293 cells stably overexpressing human MATs or OCTs. […] All cells were regularly cultivated in DMEM supplemented with 10% (v/v) FCS, penicillin (100 U/mL) and streptomycin (100 μg/mL)and kept in culture for no longer than 30 passages.
For the uptake experiments, 300,000 cells were plated in poly-D-lysine precoated 24-well plates 48 h ahead of the transport experiment. On the day of experiment, cells were initially washed once with 37 °C pre-warmed HBSS+ (Hanks buffered salt solution supplemented with 10 mM HEPES) and subsequently incubated with the substrates dissolved in pre-warmed HBSS+ for exactly two minutes. Incubation was stopped by adding ice-cold HBSS+ followed by two washing steps. After this, cells were lysed with 80% acetonitrile containing 10 ng/mL milnacipran as internal standard for high-performance liquid chromatography coupled to tandem mass spectrometry (HPLC-MS/MS) analysis. For every experiment, two additional wells per cell line were lysed using RIPA buffer for protein quantification. Total protein was quantified using the bicinchoninic acid assay [42]. This was later used for normalization of the uptake data.
Intracellularly accumulated test substances were quantified by HPLC-MS/MS analysis using a Shimadzu Nexera HPLC system with a SIL-30AC autosampler, a CTO-20AC column oven, a LC-30AD pump, and a CBM-20A controller (Shimadzu, Kyoto, Japan). Stereoselective chromatography was carried out on a [sequence] CBH HPLC column (100 × 3 mm inner dimension with 5 μM particle size; Sigma-Aldrich, Darmstadt, Germany) with a corresponding 10 × 3 mm guard column. Reversed phased chromatography was carried out using an ammonium acetate (NH4Ac) buffered aqueous mobile phase with isopropyl alcohol (IPA) as organic solvent. […] The order of elution of the enantiomers was obtained from available reference literature [43] or by applying enantiopure reference compounds to the chiral HPLC. […] Given the structural similarity of the investigated substances and the fact that separation was performed on the same column with almost identical mobile phases, we assume that this order of elution for our compound set is always the (R)- before the (S)-enantiomer.
Detection was performed with an API 4000 tandem mass spectrometer (AB SCIEX, Darmstadt, Germany) operating in multiple-reaction-monitoring mode. Quantification was performed using the Analyst 1.6.2 software (AB SCIEX, Darmstadt, Germany) and quantified by comparison to standard curves with known concentrations.
All uptake data were normalized to protein content to account for variation in the number of seeded sells. Transporter-mediated net uptake was calculated by subtracting uptake into empty vector-transfected control cells from uptake into transporter-transfected cells. Kinetic parameters were then determined after non-linear regression following the Michaelis–Menten equation (v = vmax × [S]/(Km + [S])) using GraphPad Prism (Version 5.01 for Windows, GraphPad Software, La Jolla, CA, USA). Vmax refers to the maximum transport velocity and Km is defined as the substance concentration required to reach half of vmax. The intrinsic clearance Clint was calculated as the quotient of vmax over Km.

OCT3 = target: T2, OCT3 (Homo sapiens, UniProt O75751); assay: Stereoselective uptake into OCT3-overexpressing HEK293 cells;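 also: intracellular accumulation in HEK293 cells measured by chiral HPLC-MS/MS after a 2 min substrate exposure at 37 °C, uptake normalized to total protein (bicinchoninic acid assay)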
T2 sequence (O75751 1-556): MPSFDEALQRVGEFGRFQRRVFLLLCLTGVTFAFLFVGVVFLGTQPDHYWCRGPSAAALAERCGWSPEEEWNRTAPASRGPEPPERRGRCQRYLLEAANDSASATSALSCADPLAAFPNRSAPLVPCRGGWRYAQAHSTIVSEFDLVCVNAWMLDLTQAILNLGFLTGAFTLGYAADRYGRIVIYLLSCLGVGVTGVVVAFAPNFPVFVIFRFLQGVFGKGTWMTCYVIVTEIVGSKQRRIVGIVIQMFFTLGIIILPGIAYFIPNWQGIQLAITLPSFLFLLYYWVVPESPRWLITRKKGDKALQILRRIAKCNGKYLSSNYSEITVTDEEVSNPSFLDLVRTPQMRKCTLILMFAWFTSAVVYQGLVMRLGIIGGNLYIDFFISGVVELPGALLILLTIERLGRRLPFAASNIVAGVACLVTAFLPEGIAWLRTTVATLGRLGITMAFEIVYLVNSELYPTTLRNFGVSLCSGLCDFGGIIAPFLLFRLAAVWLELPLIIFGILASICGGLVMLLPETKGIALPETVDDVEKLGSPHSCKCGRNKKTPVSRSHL

OCT2 = target: T3, OCT2 (Homo sapiens, UniProt O15244); assay: Stereoselective uptake into OCT2 (wild-type)-overexpressing HEK293 cells; conditions: OCT2; for selectivity ratio at 2 min: human, ratio between enantiomers
T3 sequence (O15244 1-555 S270A): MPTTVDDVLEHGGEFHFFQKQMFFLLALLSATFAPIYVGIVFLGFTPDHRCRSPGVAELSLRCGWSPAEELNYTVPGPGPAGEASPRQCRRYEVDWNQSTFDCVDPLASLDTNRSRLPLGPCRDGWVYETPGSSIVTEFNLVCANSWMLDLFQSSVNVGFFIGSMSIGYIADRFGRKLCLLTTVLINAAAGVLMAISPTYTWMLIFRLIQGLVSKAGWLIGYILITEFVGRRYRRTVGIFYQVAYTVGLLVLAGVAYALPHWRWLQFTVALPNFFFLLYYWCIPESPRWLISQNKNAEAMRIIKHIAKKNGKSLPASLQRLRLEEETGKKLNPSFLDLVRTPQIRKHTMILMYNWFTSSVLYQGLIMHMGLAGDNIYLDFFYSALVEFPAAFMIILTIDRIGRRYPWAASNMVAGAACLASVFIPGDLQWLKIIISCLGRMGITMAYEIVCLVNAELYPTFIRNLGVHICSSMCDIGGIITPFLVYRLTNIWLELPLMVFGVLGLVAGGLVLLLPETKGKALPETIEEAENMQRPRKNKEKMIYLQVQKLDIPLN

[1] = test system: OCT2 wild-type versus A270S variant; assay: Stereoselective uptake into OCT2 A270S variant-overexpressing HEK293 cells; conditions: human;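 also: uptake into HEK293 cells stably overexpressing human OCT2 variants, intracellular enantiomers quantified by chiral HPLC-MS/MS and normalized to total protein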
[2] = substrate: CNCC(O)c1ccc(O)c(OC)c1; assay: cells, lysate or membranes; conditions: other: HEK293 cells overexpressing human OCT2; racemic substrate, two minutes; net uptake minus empty vector control; 37.0 °C
[3] = substrate: CNCC(O)c1ccccc1; assay: cells, lysate or membranes; conditions: other: HEK293 cells overexpressing human OCT2; racemic substrate, two minutes; net uptake minus empty vector control; 37.0 °C
[4] = substrate: CNC[C@@H](O)c1ccc(O)cc1; assay: cells, lysate or membranes; conditions: other: HEK293 cells overexpressing human OCT2; racemic substrate, two minutes; net uptake minus empty vector control; 37.0 °C
[5] = substrate: CNC[C@@H](O)c1cccc(O)c1; assay: cells, lysate or membranes; conditions: other: HEK293 cells overexpressing human OCT2; racemic substrate, two minutes; net uptake minus empty vector control; 37.0 °C
[6] = substrate: CNC[C@H](O)c1cccc(O)c1; assay: cells, lysate or membranes; conditions: other: HEK293 cells overexpressing human OCT2; racemic substrate, two minutes; net uptake minus empty vector control; 37.0 °C
[7] = substrate: COc1cc(C(O)CN)ccc1O; assay: cells, lysate or membranes; conditions: other: HEK293 cells overexpressing human OCT2; racemic substrate, two minutes; net uptake minus empty vector control; 37.0 °C
[8] = substrate: NCC(O)c1cccc(O)c1; assay: cells, lysate or membranes; conditions: other: HEK293 cells overexpressing human OCT2; racemic substrate, two minutes; net uptake minus empty vector control; 37.0 °C
[9] = substrate: NC[C@H](O)c1ccc(O)cc1; assay: cells, lysate or membranes; conditions: other: HEK293 cells overexpressing human OCT2; racemic substrate, two minutes; net uptake minus empty vector control; 37.0 °C
[10] = substrate: [H][C@](O)(CNC)c1ccc(O)cc1; assay: cells, lysate or membranes; conditions: other: HEK293 cells overexpressing human OCT2; racemic substrate, two minutes; net uptake minus empty vector control; 37.0 °C

Molecule: NC[C@H](O)c1ccc(O)cc1 [(R)-Octopamine]
- Clint ± SEM (NET; NET, quotient of vmax over Km): 166 mL × g Protein^−1 × min^−1
- Stereoselectivity Vmax (NET; NET, ratio between enantiomers, given as for (R) or for 1): 1.30 fold
- Stereoselectivity Km (NET; NET, ratio between enantiomers, given as for (R) or for 1 (first-eluting)): 1.55 fold
- selectivity ratio at 2 min (NET; human, HEK293 cells stably overexpressing human NET): 1.19
- Clint ± SEM (DAT; DAT, quotient of vmax over Km): 100 mL × g Protein^−1 × min^−1
- Stereoselectivity Vmax (DAT; DAT, ratio between enantiomers, given as for (R) or for 1): 1.05 fold
- Stereoselectivity Km (DAT; DAT, ratio between enantiomers, given as for (R) or for 1 (first-eluting)): 1.05 fold
- selectivity ratio at 2 min (DAT; human, HEK293 cells stably overexpressing human DAT): 1
- Clint ± SEM (SERT; SERT, quotient of vmax over Km): 4.14 mL × g Protein^−1 × min^−1
- Stereoselectivity Vmax (SERT; SERT, ratio between enantiomers, given as for (R) or for 1): 2.38 fold
- Stereoselectivity Km (SERT; SERT, ratio between enantiomers, given as for (R) or for 1 (first-eluting)): 1.39 fold
- selectivity ratio at 2 min (SERT; human, HEK293 cells stably overexpressing human SERT): 1.71
- Clint ± SEM (OCT1; quotient of vmax over Km): 4.53 mL × g Protein^−1 × min^−1
- selectivity ratio at 2 min (OCT1; HEK293 cells stably overexpressing human OCT1, Stereoselectivity ClInt, given as for (R) or for 1 (also 1.00-fold for 1/2)): 1.05
- selectivity ratio at 2 min (OCT1; HEK293 cells stably overexpressing human OCT1, Stereoselectivity Km, given as for (R) or for 1 (first-eluting)): 1.04
- selectivity ratio at 2 min (OCT1; HEK293 cells stably overexpressing human OCT1, Stereoselectivity Vmax, given as for (R) or for 1): 1.09
- Clint ± SEM (OCT3; OCT3, quotient of vmax over Km): 38.8 mL × g Protein^−1 × min^−1
- Stereoselectivity Vmax (OCT3; OCT3, ratio between enantiomers, given as for (S) or for 2): 1.10 fold
- selectivity ratio at 2 min (OCT3; human, HEK293 cells stably overexpressing human OCT3): 1.38
- Clint ± SEM (OCT2; quotient of vmax over Km): 39.6 mL × g Protein^−1 × min^−1
- selectivity ratio at 2 min (OCT2; HEK293 cells stably overexpressing human wild-type OCT2, Stereoselectivity ClInt, given as for (R) or for 1): 1.31
- selectivity ratio at 2 min (OCT2; HEK293 cells stably overexpressing human wild-type OCT2, Stereoselectivity Km, given as for (R) or for 1 (first-eluting)): 1.63
- selectivity ratio at 2 min (OCT2; HEK293 cells stably overexpressing human wild-type OCT2, Stereoselectivity Vmax, given as for (R) or for 1): 2.14
- selectivity ratio at 2 min, 100 μM [1]: 1.2

B1: OCT2 (Homo sapiens; S270A) (protein)
chain: MPTTVDDVLEHGGEFHFFQKQMFFLLALLSATFAPIYVGIVFLGFTPDHRCRSPGVAELSLRCGWSPAEELNYTVPGPGPAGEASPRQCRRYEVDWNQSTFDCVDPLASLDTNRSRLPLGPCRDGWVYETPGSSIVTEFNLVCANSWMLDLFQSSVNVGFFIGSMSIGYIADRFGRKLCLLTTVLINAAAGVLMAISPTYTWMLIFRLIQGLVSKAGWLIGYILITEFVGRRYRRTVGIFYQVAYTVGLLVLAGVAYALPHWRWLQFTVALPNFFFLLYYWCIPESPRWLISQNKNAEAMRIIKHIAKKNGKSLPASLQRLRLEEETGKKLNPSFLDLVRTPQIRKHTMILMYNWFTSSVLYQGLIMHMGLAGDNIYLDFFYSALVEFPAAFMIILTIDRIGRRYPWAASNMVAGAACLASVFIPGDLQWLKIIISCLGRMGITMAYEIVCLVNAELYPTFIRNLGVHICSSMCDIGGIITPFLVYRLTNIWLELPLMVFGVLGLVAGGLVLLLPETKGKALPETIEEAENMQRPRKNKEKMIYLQVQKLDIPLN
- Km [2]: 54.7 µM and 68.1 µM
- Km [3]: 12.8 µM and 19.3 µM
- Vmax [3]: 329 pmol × mg Protein^−1 × min^−1 and 261 pmol × mg Protein^−1 × min^−1
- Km [4]: 214 µM
- Vmax [4]: 5307 pmol × mg Protein^−1 × min^−1
- Km [5]: 112 µM
- Vmax [5]: 3068 pmol × mg Protein^−1 × min^−1
- Km [6]: 212 µM
- Vmax [6]: 6263 pmol × mg Protein^−1 × min^−1
- Km [7]: 464 µM and 613 µM
- Vmax [7]: 2747 pmol × mg Protein^−1 × min^−1 and 5665 pmol × mg Protein^−1 × min^−1
- Km [8]: 911 µM and 582 µM
- Vmax [8]: 33143 pmol × mg Protein^−1 × min^−1 and 15157 pmol × mg Protein^−1 × min^−1
- Km [9]: 636 µM
- Vmax [9]: 25182 pmol × mg Protein^−1 × min^−1
- Km [10]: 443 µM
- Vmax [10]: 10877 pmol × mg Protein^−1 × min^−1
